Measurements taken from patent US20230357179A1, “RAF KINASE INHIBITORS AND METHODS OF USE THEREOF” (Deciphera Pharmaceuticals, LLC, priority 2021, published 2023).

Assays:
[1] = system: H2405 cells; assay: H2405 cell proliferation assay (1), resazurin, 96-well; type: cell-based; settings: Homo sapiens, NCI-H2405, inhibition of cell proliferation
Experimental: H2405 Cell Proliferation Assay (1)
(§1) H2405 cells (catalog #CRL-5944) are obtained from the American Type Culture Collect (ATTC, Manassas, VA). Briefly, cells were grown in RPMI 1640 supplemented with 5% characterized fetal bovine serum (Invitrogen, Carlsbad, CA) and 1% Penicillin/Streptomycin/L-Glutamine at 37° C., 5% CO2, and 95% humidity. Cells are expanded until reaching 70-95% confluency at which point they are subcultured or harvested for assay use. A serial dilution of test compound is dispensed into a 96-well black clear bottom plate in triplicate. Three thousand cells are added per well in 200 μL complete growth medium in the 96-well plate. Plates are incubated for 67-72 hours at 37° C., 5% CO2, and 95% humidity. At the end of the incubation, 40 μL of a 440 μM solution of resazurin (Sigma, St. Louis, MO) in PBS is added to each well of the plate and plates are incubated for an additional 5-6 hours at 37° C., 5% CO2, and 95% humidity. Plates are read on a Synergy2 or equivalent reader (Biotek, Winooski VT) using an excitation of 540 nm and an emission of 600 nm. Data is analyzed using Prism software (GraphPad, San Diego, CA) to calculate IC50 values.

[2] = target: T1, B-Raf kinase (Homo sapiens, UniProt P15056); assay: Biochemical assay for B-Raf.1 (coupled pyruvate kinase/lactate dehydrogenase); settings: read-out: BRAF.1 IC50
T1 construct: GST (N); purchased Sigma
Outline: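 Reaction rates over the 4–5 h window of a continuous 6 h, 30 °C read were converted to percent inhibition and fitted for IC50. B-Raf (0.13 nM) phosphorylated 30.1 nM MEK with 1 mM ATP; ADP coupled via PK/LDH to NADH loss at 340 nm, 1% DMSO final.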

[3] = system: Miapaca-2 cells; assay: MiaPaca-2 cell proliferation assay (1), resazurin, 96-well; type: cell-based; settings: Homo sapiens, MIA PaCa-2, inhibition of cell proliferation
Experimental: MiaPaca-2 Cell Proliferation Assay (1)
as §1, with “Miapaca-2 cells” for “H2405 cells”, “(catalog #CRL-1420)” for “(catalog #CRL-5944)”, “in DMEM” for “in RPMI 1640”, “with 10%” for “with 5%”, “Carlsbad, CA), 2.5% New Zealand sourced horse serum” for “Carlsbad, CA)”

T1 sequence (P15056 416-766): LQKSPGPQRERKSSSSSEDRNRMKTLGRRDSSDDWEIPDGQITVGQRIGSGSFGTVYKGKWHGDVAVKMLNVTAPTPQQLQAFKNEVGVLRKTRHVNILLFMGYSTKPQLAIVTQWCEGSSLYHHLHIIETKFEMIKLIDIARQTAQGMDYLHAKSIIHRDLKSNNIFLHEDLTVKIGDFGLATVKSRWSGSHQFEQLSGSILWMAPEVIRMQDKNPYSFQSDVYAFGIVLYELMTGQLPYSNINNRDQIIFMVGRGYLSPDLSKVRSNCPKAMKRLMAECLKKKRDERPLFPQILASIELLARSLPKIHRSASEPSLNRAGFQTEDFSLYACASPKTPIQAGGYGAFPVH

Row | Compound | IC50 [1] [nM] | IC50 [2] [nM] | IC50 [3] [nM]
1 | Cc1ncc(NC(=O)NC2CC(C)(C)C2)cc1-c1cc(OCCO)nc(-c2ccnc(NC(=O)C3CC3)c2)c1 [Example 126] | 500 to 1000 | ≤ 100 | 
2 | Cc1cc(F)c(NC(=O)NCCC2(C)CC2)cc1-c1ccnc(-c2ccnc(NC(=O)C3CC3)c2)c1 [Example 134] | 500 to 1000 | ≤ 100 | 
3 | Cc1ncc(NC(=O)NCCC2(C)CC2)cc1-c1ccnc(-c2ccnc(NC(=O)C3(C#N)CC3)c2)c1 [Example 169] | 100 to 500 | ≤ 100 | 
4 | COC(=O)Nc1cc(-c2cc(-c3cc(NC(=O)NCCC(C)(C)OC)c(F)cc3F)ccn2)ccn1 [Example 163] | 1000 to 10000 | 100 to 500 | 
5 | COC(=O)Nc1cc(-c2cc(-c3cc(NC(=O)NCCC4(OC)CC4)c(F)cc3C)ccn2)ccn1 [Example 145] | 500 to 1000 | ≤ 100 | 1000 to 10000
6 | COC(=O)Nc1cc(-c2cnnc(-c3cc(NC(=O)NCCC(C)(C)OC)cnc3C)c2)ccn1 [Example 153] | 1000 to 10000 | 500 to 1000 | 
7 | Cc1cc(F)c(NC(=O)NCCC2(C)CC2)cc1-c1cnnc(-c2ccnc(NC(=O)C3CC3)c2)c1 [Example 168] | ≤ 100 | ≤ 100 | 
8 | Cc1cc(F)c(NC(=O)NCCC(C)(C)F)cc1-c1cc(-c2ccnc(NC(=O)C3CC3)c2)cnn1 [Example 139] | 500 to 1000 | ≤ 100 | 1000 to 10000
9 | COC(=O)Nc1cc(-c2cc(-c3cc(NC(=O)NCCC4COC4)c(F)cc3C)cc(OCCO)n2)ccn1 [Example 155] | 1000 to 10000 | ≤ 100 | 
10 | CNC(=O)c1cc(-c2cnnc(-c3cc(NC(=O)NCCC(C)(C)F)c(F)cc3C)c2)ccn1 [Example 132] | 1000 to 10000 | 100 to 500 | 1000 to 10000
11 | COC(=O)Nc1cc(-c2cc(-c3cc(NC(=O)N4CCC(C)(C)CC4)cnc3C)cc(OCCO)n2)ccn1 [Example 166] | 500 to 1000 | 100 to 500 | 
12 | COC(=O)Nc1cc(-c2cc(-c3cc(NC(=O)NCCN4CCC4)c(F)cc3C)cc(OCCO)n2)ccn1 [Example 125] | 1000 to 10000 | > 1000 | 
13 | Cc1cc(F)c(NC(=O)NCCC(C)(C)F)cc1-c1cccc(-c2cc(NC(=O)C3CC3)ncn2)c1 [Example 127] | 1000 to 10000 | ≤ 100 | 
14 | Cc1ccc(NC(=O)NCCC(C)(C)C)cc1-c1cc(N2CCOCC2)nc(N2CCOCC2)c1 [Example 4] | 100 to 500 | ≤ 100 | 1000 to 10000
15 | COC1(CCNC(=O)Nc2cc(-c3ccnc(-c4ccnc(NC(=O)C5CC5)c4)n3)c(C)cc2F)CC1 [Example 117] | 100 to 500 | ≤ 100 | 1000 to 10000
16 | COC(C)(C)CCNC(=O)Nc1cc(-c2ccnc(-c3ccnc(NC(=O)C4CC4)c3)c2)c(F)cc1F [Example 162] | 1000 to 10000 | ≤ 100 | 
17 | COC(=O)Nc1cc(-c2cnnc(-c3cc(NC(=O)NCCC(C)(C)OC)c(F)cc3C)c2)ccn1 [Example 140] | 1000 to 10000 | 100 to 500 | 1000 to 10000
18 | COC(=O)Nc1cc(-c2cc(-c3cc(NC(=O)NC[C@H]4CCO4)c(F)cc3C)cc(OCCO)n2)ccn1 [Example 96] | 1000 to 10000 | 500 to 1000 | 
19 | COC[C@H]1CCN(C(=O)Nc2cnc(C)c(-c3cc(OCCO)nc(-c4ccnc(NC(=O)OC)c4)c3)c2)C1 [Example 152] | 1000 to 10000 | 100 to 500 | 
20 | COC(=O)Nc1cc(-c2cc(-c3cc(NC(=O)N[C@H]4C[C@](C)(F)C4)cnc3C)cc(OCCO)n2)ccn1 [Example 157] | 1000 to 10000 | ≤ 100 | 
21 | COC(=O)Nc1cc(-c2cccc(-c3cc(NC(=O)NCCC4(OC)CC4)cnc3C)c2)ncn1 [Example 138] | 1000 to 10000 | 100 to 500 | 
22 | COC[C@@H]1CCN(C(=O)Nc2cnc(C)c(-c3cc(OCCO)nc(-c4ccnc(NC(=O)OC)c4)c3)c2)C1 [Example 160] | 1000 to 10000 | 100 to 500 | 
23 | COC(=O)Nc1cc(-c2ccnc(-c3cc(NC(=O)NCCC(C)(C)OC)c(F)cc3C)n2)ccn1 [Example 171] | 1000 to 10000 | ≤ 100 | 
24 | Cc1cc(F)c(NC(=O)NCCC(C)(C)F)cc1-c1ccnc(-c2ccnc(NC(=O)C3CC3)c2)c1 [Example 159] | 100 to 500 | ≤ 100 | 

The next lines start with the values.

Row | IC50 [1] [nM] | IC50 [2] [nM] | IC50 [3] [nM] | Compound
25 | 1000 to 10000 | ≤ 100 |  | COC(=O)Nc1cc(-c2nccc(-c3cc(NC(=O)NCCC(C)(C)OC)c(F)cc3C)n2)ccn1 [Example 129]
26 | 500 to 1000 | ≤ 100 | 1000 to 10000 | Cc1ncc(NC(=O)NCCC2(C)CC2)cc1-c1ccnc(-c2ccnc(NC(=O)C3CC3)c2)c1 [Example 118]
27 | 1000 to 10000 | 100 to 500 | 1000 to 10000 | COC(C)(C)CCNC(=O)Nc1cnc(C)c(-c2cc(-c3ccnc(NC(=O)C4CC4)c3)cnn2)c1 [Example 121]
28 | 1000 to 10000 | 500 to 1000 | 1000 to 10000 | COC[C@H]1CCN(C(=O)Nc2cc(-c3cc(-c4ccnc(NC(=O)OC)c4)cnn3)c(C)cc2F)C1 [Example 148]
29 | 100 to 500 | ≤ 100 |  | CNC(=O)c1cc(-c2cc(-c3cc(NC(=O)NCCC4(C)CC4)c(F)cc3C)cc(OCCO)n2)ccn1 [Example 164]
30 | 1000 to 10000 | 100 to 500 |  | COC1(CCNC(=O)Nc2cnc(C)c(-c3ccnc(-c4ccnc(NC(=O)C5CC5)c4)n3)c2)CC1 [Example 137]
31 | 1000 to 10000 | ≤ 100 |  | Cc1cc(F)c(NC(=O)NCCC(C)(C)F)cc1-c1ccnc(-c2ccnc(NC(=O)C3CC3)c2)n1 [Example 128]
32 | 1000 to 10000 | > 1000 |  | CNC(=O)c1cc(-c2cnnc(-c3cc(NC(=O)NCCC(C)(C)OC)cnc3C)c2)ccn1 [Example 154]
33 | 500 to 1000 | ≤ 100 | 1000 to 10000 | COC(C)(C)CCNC(=O)Nc1cc(-c2cc(-c3ccnc(NC(=O)C4CC4)c3)cnn2)c(C)cc1F [Example 142]
34 | 1000 to 10000 | ≤ 100 |  | Cc1ncc(NC(=O)NCCC(C)(C)F)cc1-c1ccnc(-c2ccnc(NC(=O)C3CC3)c2)n1 [Example 136]
35 | 1000 to 10000 | 500 to 1000 | 1000 to 10000 | COC(=O)Nc1cc(-c2nccc(-c3cc(NC(=O)NCCC4(OC)CC4)cnc3C)n2)ccn1 [Example 143]
36 | 1000 to 10000 | 500 to 1000 |  | COC[C@@H]1CCN(C(=O)Nc2cc(-c3cc(-c4ccnc(NC(=O)OC)c4)cnn3)c(C)cc2F)C1 [Example 149]
37 | ≤ 100 | ≤ 100 |  | Cc1cc(F)c(NC(=O)NC2CC(C)(C)C2)cc1-c1cc(OCCO)nc(-c2ccnc(NC(=O)C3CC3)c2)n1 [Example 167]
38 | 100 to 500 | ≤ 100 |  | COC(=O)Nc1cc(-c2cc(-c3cc(NC(=O)NCCC4(C)CC4)cnc3C)cc(OCCO)n2)ccn1 [Example 151]
39 | 1000 to 10000 | ≤ 100 | 1000 to 10000 | COC(=O)Nc1cc(-c2nccc(-c3cc(NC(=O)NCCC(C)(C)F)c(F)cc3C)n2)ccn1 [Example 147]
40 | 1000 to 10000 | ≤ 100 |  | CCC(C)CCNC(=O)Nc1cnc(C)c(-c2ccnc(-c3ccnc(NC(=O)C4CC4)c3)c2)c1 (stereo not shown) [Example 124]
41 | 1000 to 10000 | > 1000 | 1000 to 10000 | CNC(=O)c1cc(-c2cnnc(-c3cc(NC(=O)NCCC(C)(C)OC)c(F)cc3C)c2)ccn1 [Example 123]
42 |  | ≤ 100 | 1000 to 10000 | Cc1ccc(NC(=O)Nc2cccc(C(F)(F)F)c2)cc1-c1cc(OCCO)nc(N2CCOCC2)c1 [Example 3, 1-(3-(2-(2-hydroxyethoxy)-6-morpholinopyridin-4-yl)-4-methylphenyl)-3-(3-(trifluoromethyl)phenyl)urea]
43 | 1000 to 10000 | 100 to 500 |  | COC(=O)Nc1cc(-c2nccc(-c3cc(NC(=O)NCCC4(C)CC4)cnc3C)n2)ccn1 [Example 135]
44 | 1000 to 10000 | 100 to 500 |  | Cc1ncc(NC(=O)NCCC(C)(C)F)cc1-c1nccc(-c2ccnc(NC(=O)C3CC3)c2)n1 [Example 130]
45 | 1000 to 10000 | > 1000 |  | Cc1ncc(NC(=O)NCCN2CCC2)cc1-c1cc(OCCO)nc(-c2ccnc(NC(=O)C3CC3)c2)c1 [Example 172]
